Measurements as given in ChEMBL document CHEMBL1126158, “Conformational analyses and molecular-shape comparisons of a series of indanone-benzylpiperidine inhibitors of acetylcholinesterase” (J Med Chem, 1992).

molecular target: Acetylcholinesterase (Homo sapiens, UniProt P22303); assay: Inhibition of acetylcholinesterase activity
Sequence (P22303 whole entry): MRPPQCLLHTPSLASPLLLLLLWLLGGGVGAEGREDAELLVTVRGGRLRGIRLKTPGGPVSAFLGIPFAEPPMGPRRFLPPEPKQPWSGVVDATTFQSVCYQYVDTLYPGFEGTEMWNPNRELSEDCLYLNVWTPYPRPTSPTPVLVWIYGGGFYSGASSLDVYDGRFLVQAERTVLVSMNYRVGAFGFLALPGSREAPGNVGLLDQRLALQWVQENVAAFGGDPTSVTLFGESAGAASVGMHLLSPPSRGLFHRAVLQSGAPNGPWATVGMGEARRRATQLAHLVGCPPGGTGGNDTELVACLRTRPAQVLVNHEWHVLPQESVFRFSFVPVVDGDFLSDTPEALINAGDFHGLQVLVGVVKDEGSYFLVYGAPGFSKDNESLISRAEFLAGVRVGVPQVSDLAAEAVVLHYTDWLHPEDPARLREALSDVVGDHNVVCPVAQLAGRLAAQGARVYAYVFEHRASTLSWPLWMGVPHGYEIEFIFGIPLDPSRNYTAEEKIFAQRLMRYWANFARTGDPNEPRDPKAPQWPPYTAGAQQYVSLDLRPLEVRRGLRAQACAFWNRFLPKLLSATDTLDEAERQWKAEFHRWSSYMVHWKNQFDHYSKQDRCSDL

SMILES	IC50 [nM]
CN1CCC(C[C@@H]2Cc3ccccc3C2=O)CC1	5.3
CC1CCN(Cc2cccc3ccccc23)CC1	220
CC1CCN(Cc2ccc3ccccc3c2)CC1	2900
CN1CCC(/C=C/C=C2\Cc3ccccc3C2=O)CC1	3
CN1CCC(CC/C=C2\Cc3ccccc3C2=O)CC1	0.82
CN1CCN(CC2Cc3ccccc3C2=O)CC1 (centres undefined)	94
CC1CCN(CC2Cc3ccccc3C2=O)CC1 (centres undefined)	480
CN1CCC(/C=C2\Cc3ccccc3C2=O)CC1	8.4
CN1CCC(=C2Cc3ccccc3C2=O)CC1	1200
Cc1ccccc1CN1CCC(C)CC1	10
CC1CCN(Cc2ccccc2)CC1	5.3
CN1CCC(CCC2C(=O)Nc3ccccc3C2=O)CC1 (centres undefined)	4.2
CN1CCC(CCCC2Cc3ccccc3C2=O)CC1 (centres undefined)	1.5
CC1CCN(CCc2ccccc2)CC1	180
CC1CCN(CC2CCCCC2)CC1	8.9
CN1CCC(CCN2C(=O)c3ccccc3C2=O)CC1	0.9
CN1CCC(C[C@H]2Cc3ccccc3C2=O)CC1	7.7
CC1CCN(Cc2ccccc2[N+](=O)[O-])CC1	160
CN1CCC(C2Cc3ccccc3C2=O)CC1 (centres undefined)	3300
